Experimental findings from patent US12485174B2, “HDAC6-activated macrophages, compositions, and uses thereof” (The George Washington University, A Congressionally …, priority 2019, dated 2025) are described below.

SMILES strings stand for the structures.

Data set [1] relates to SM1-OVA murine melanoma cells. Nature of the data set: MHCI and MHCI-SIINFEKL levels in SM1-OVA melanoma cells by flow cytometry. It counts as cell-based, mouse. The note with it: for MHC-I mediated SIINFEKL antigen presentation: over time. The method, then:
FIG. 3 is a bar graph showing the MHCI and MHCI-SIINFEKL levels after SM1-OVA (SM1 cells expressing OVA peptide) melanoma cells were treated with 5 μM NextA for 24 hours. MHCI and MHCI-SIINFEKL levels were measured by FACS.
FIG. 25 is a panel of four bar graphs showing the MHCI-SIINFEKL levels when SM1 cells stably expressing OVA (SM1-OVA cells) peptide are exposed to 4 Gy of radiation, NextA, or a combination at the times indicated. MHC-I mediated SIINFEKL antigen presentation was measured by flow cytometry.
Cell culture: SM1 murine melanoma cells were obtained from Dr. A. Ribas at the University of California, Los Angeles, and cultured in an incubator in RPMI 1640, 1% penicillin-streptomycin, and 10% fetal bovine serum at 37° C. with 5% CO2.
(§1) Flow cytometry: Flow cytometry was performed following the protocol described previously. Knox et al., Sci Rep. 2019 Oct. 10; 9(1):14824. doi: 10.1038/s41598-019-51403-6. Briefly, mice were euthanized following the IACUC protocol, and tumor cells were processed into a single cell suspension for analysis by flow cytometry with tumor digestion buffer. The following antibodies were used to stain cell surface markers expressed by different immune cells. All the antibodies were purchased from Biolegend (San Diego, CA) unless otherwise specified. Myeloid cell surface markers are as follows: APC anti-mouse CD80 (clone 16-10A1), PE/Cy7 anti-mouse CD206 (MMR) (clone C068C2), APC/Fire™ 750 anti-mouse CD45.2 (clone 104), FITC anti-mouse H-2 (clone M1/42), Brilliant Violet 785™ anti-mouse F4/80 (clone BM8), and Alexa Fluor® 700 anti-mouse CD3 (clone 17A2). To distinguish between MHCI and MHCI-bound to SIINFEKL, we used APC anti-mouse H-2Kb bound to SIINFEKL antibody (clone 25-D1.16). Multi-color flow data acquisition was performed on BD Celesta, and data analysis was performed with FlowJo software (version 10.3). Statistical analyses were performed with GraphPad Prism Software (version 7.03).
The combination of radiation and HDAC6 inhibition increases antigen presentation in a time dependent manner. […] Radiation with HDAC6 inhibition increases antigen presentation in tumor cells. FIG. 25. The sequencing of NextA and radiation treatment for effective antigen presentation in tumor cells is show in FIG. 26.

In data set [2] the test system is Bone marrow derived macrophages (BMDMs). Nature of the data set: Polarization of bone marrow derived macrophages to M1 (LPS/IFNγ) or M2 (IL4/IL13) phenotype by flow cytometry. It counts as cell-based, mouse. The method, then:
(§2) Bone marrow derived macrophages: For macrophage isolation, bone marrow from 6-12 weeks old C57BL/6 mouse was used following an IACUC approved protocol. Briefly, femurs and tibia bones were isolated after removing the skeletal muscles. The bone marrow was flushed with RPMI complete medium supplemented with non-essential amino acids. A single-cell suspension of bone marrow was prepared with repeated pipetting and incubated with 20 ng/mL of mouse recombinant M-CSF (Biolegend) at 37° C. for 4 days to differentiate into macrophages.
as §1
Bone marrow derived macrophages (BMDMs) isolated from femur and tibia of C57BL/6 mouse were differentiated into macrophages with M-CSF. These naïve macrophages were pre-treated with NextA and polarized to M1 macrophages with LPS/IFNγ or M2 macrophages with IL4/IL13.

Data set [3] has as its system bone marrow derived macrophages. Nature of the data set: Gene expression of polarization markers, cytokines and antigen processing genes in macrophages by quantitative real-time PCR. It counts as cell-based, mouse. The method, then: Quantitative analysis of gene expression. Total RNA was isolated from cells following the manufacturer's instructions of QIAzol lysis reagent (Qiagen, 79306). RNA quantification was done using a NanoDrop One spectrophotometer (NanoDrop Technologies). Samples with absorbance at 260/280 nm ratios over 1.9 were used for cDNA synthesis with the iScript cDNA synthesis kit (Bio-Rad, 1708891). Synthesized cDNA from 1 μg of total RNA was diluted 1:10 with nuclease-free water. The quantitative PCR analysis was performed using iQ SYBR Green Supermix (Bio-Rad, 1708882) on a CFX96 real-time system (Bio-Rad). Gene expression analysis was performed using the 2^−ΔΔCt method, and target mRNA levels were normalized to GAPDH expression. Cycling conditions were used as per the manufacturer's instructions. Single PCR product amplification was confirmed by melting curve analysis in all the experiments performed.
as §2
Further validation of M2 polarization markers at gene expression levels by quantitative real-time PCR indicate that Arginase I, IL-10 and TGFβ, which are tumor-promoting factors, were decreased. FIG. 9, FIG. 10, and FIG. 11. The expression of M1 polarization markers and anti-tumor, pro-inflammatory cytokines such as TNFα and IL-1B were increased. FIG. 12 and FIG. 13.

In data set [4] the test system is bone marrow-derived macrophages. Nature of the data set: SIINFEKL antigen cross-presentation (XPT) by polarized bone marrow derived macrophages, MHCI-SIINFEKL antibody, FACS. It counts as cell-based, mouse. The note with it: M1 polarized macrophages pre-treated with NextA, OVA peptide 24 hours. How it is done:
FIG. 1 is a line graph showing the SIINFEKL antigen levels derived from OVA peptide and detected by MHCI-SIINFEKL specific antibody as measured by FACS in bone marrow-derived macrophages from wild type or HDAC6 KO (knockout) mice. Macrophages were pre-treated with Nexturastat A (NextA) 5 μM and then polarized for 24 hours.
FIG. 2 is a graph showing the MHCI-SIINFEKL levels in polarized macrophages derived from wild-type mice pre-treated with NextA and incubated with OVA peptide for 24 hours.
Bone marrow derived macrophages: For macrophage isolation, bone marrow from 6-12 weeks old C57BL/6 mouse was used following an IACUC approved protocol. Briefly, femurs and tibia bones were isolated after removing the skeletal muscles. The bone marrow was flushed with RPMI complete medium supplemented with non-essential amino acids. A single-cell suspension of bone marrow was prepared with repeated pipetting and incubated with 20 ng/mL of mouse recombinant M-CSF (Biolegend) at 37° C. for 4 days to differentiate into macrophages. […]
Endogenous peptides are usually presented through MHC-I to CD8 T-cells and exogenous (from other cells such as tumors) peptides through MHC-II to CD4 T-cells. […] Taking advantage of a highly specific antibody recognizing MHC-I loaded with SIINFEKL peptide, efficiency of antigen XPT was determined. […]

The mark [5] stands for this setting: M1 macrophages compared to M0 after treatment.
[6] abbreviates: pre-treated polarized macrophages.

As for `CCCCN(Cc1ccc(C(=O)NO)cc1)C(=O)Nc1ccccc1` [NextA, Nexturastat A], in data set [1] (5 μM NextA for 24 hours), the “presence of MHC I” value is listed as “increased” and the “presence of SIINFEKL-loaded MHC-I” value is recorded as “increased”. Besides, the “MHC-I mediated SIINFEKL antigen presentation” value in data set [1] (NextA alone) is given as “time dependent increases”. In data set [1] (NextA in combination with 4 Gy of radiation), the “MHC-I mediated SIINFEKL antigen presentation” value is on record as “time dependent increases”. The “concentration over which high cytotoxicity is induced” value in the data set on Macrophages is on record as “over 5 μM”. Also, in data set [2] (data not shown), the “pro-tumoral M2 phenotype of macrophages” value was “reduced”. In data set [2] (pre-treatment of naïve macrophages, then IL4/IL13), the “polarization of M2 macrophages” value is “decreased”. For the same compound, the “polarization of M1 macrophages” value in data set [2] (pre-treatment of naïve macrophages, then LPS/IFNγ) is recorded as “did not affect”. Further, in data set [3] (M0 macrophages), the “IL1 beta expression (M1 pro-inflammatory cytokine)” value was “increases”, the “IL10 expression (M2 anti-inflammatory cytokine)” value is “decreased”, the “IL12 expression (M1 pro-inflammatory cytokine)” value is recorded as “increases” and the “TGF beta expression (M2 anti-inflammatory cytokine)” value was “decreased”. Besides, in data set [3] (M0 macrophages), the “TNF alpha expression (M1 pro-inflammatory cytokine)” value is “increases”. Further, in data set [3] (setting [5]), the ERAP1 gene expression entry was “increased”, the TAP1 gene expression result is reported as “increased”, the TAP2 gene expression result is reported as “increased” and the TAPBP gene expression result is listed as “increased”. In data set [3] (setting [6]), the “Arginase I gene expression (M2 polarization marker)” value is given as “decreased”, the “IL-1B gene expression (M1 marker)” value is reported as “increased”, the “IL-10 gene expression (M2 marker)” value is “decreased” and the “TGFβ gene expression (M2 marker)” value is on record as “decreased”. Further, in data set [3] (setting [6]), the “TNFα gene expression (M1 marker)” value is on record as “increased”. Moreover, in data set [4], the “M1 XPT (cross-presentation of SIINFEKL peptide by MHC-I)” value is on record as “increased”.
